The source made the active and inactive calls. The rule behind the calls is not given here.

For one series, the system named is Erythrocyte. The experiment in a line: Protection against H2O2-induced oxidative stress in mouse RBC assessed as inhibition of hemolysis at 1 uM pretreated for 30 mins followed by H2O2 addition and measured after 5 hrs by malondialdehyde indicator based assay relative to control. It is filed as functional.
Conditions: not given
For orientation: inhibition means the change of the read-out against control, counted positive when it falls. For the molecule `CC(C)=CCc1c(O)c(CN2CCCCCC2)c2oc3c(CN4CCCCCC4)c(O)c(O)c(CC=C(C)C)c3c(=O)c2c1O`, the inhibition at 1 µM was determined as 9%.

For the molecule `COc1c(O)c(CN2CCCCCC2)c2oc3c(CN4CCOCC4)c(O)c(CC=C(C)C)c(O)c3c(=O)c2c1CC=C(C)C`, the inhibition at 1 µM came to 37.5%.

In the case of `COc1c(O)cc2oc3c(CN4CCCC4)c(O)c(CC=C(C)C)c(O)c3c(=O)c2c1CC=C(C)C`, the inhibition at 1 µM stood at 29.2%.

Regarding `COc1c(O)c(CN2CCOCC2)c2oc3c(CN4CCOCC4)c(O)c(CC=C(C)C)c(O)c3c(=O)c2c1CC=C(C)C`, the inhibition at 1 µM came out at 75.6%.

As for `CC(C)=CCc1c(O)c(CN(C)C)c2oc3c(CN(C)C)c(O)c(O)c(CC=C(C)C)c3c(=O)c2c1O`, the inhibition at 1 µM turned out to be 15.3%.

The next series deals with Erythrocyte. The experiment in a line: Hemolytic activity against mouse RBC at 30 uM measured after 5 hrs by malondialdehyde indicator based assay. It is filed as ADME, cell-based.
Conditions: not given
Turning to `CC(C)=CCc1c(O)c(CN2CCCCCC2)c2oc3c(CN4CCCCCC4)c(O)c(O)c(CC=C(C)C)c3c(=O)c2c1O`, the Activity entry was “Non-Toxic”.

In the case of `COc1c(O)c(CN2CCCCCC2)c2oc3c(CN4CCOCC4)c(O)c(CC=C(C)C)c(O)c3c(=O)c2c1CC=C(C)C`, the Activity result is on record as “Non-Toxic”.

For the molecule `COc1c(O)cc2oc3c(CN4CCCC4)c(O)c(CC=C(C)C)c(O)c3c(=O)c2c1CC=C(C)C`, the Activity entry is “Non-Toxic”.

Turning to `COc1c(O)c(CN2CCOCC2)c2oc3c(CN4CCOCC4)c(O)c(CC=C(C)C)c(O)c3c(=O)c2c1CC=C(C)C`, the Activity result is reported as “Non-Toxic”.

On to `CC(C)=CCc1c(O)c(CN(C)C)c2oc3c(CN(C)C)c(O)c(O)c(CC=C(C)C)c3c(=O)c2c1O`, for which the Activity entry was “Non-Toxic”.

A further series relates to Erythrocyte. Briefly: Antioxidant activity against H2O2-induced oxidative stress in mouse RBC assessed as inhibition of LPO accumulation at 10 uM pretreated for 30 mins followed by H2O2 addition and measured after 4 hrs by TBARS assay relative to control. It is filed as functional.
Conditions: not given
With `CC(C)=CCc1c(O)c(CN2CCCCCC2)c2oc3c(CN4CCCCCC4)c(O)c(O)c(CC=C(C)C)c3c(=O)c2c1O`, the inhibition at 10 µM came out at 71.5%.

Consider `COc1c(O)c(CN2CCCCCC2)c2oc3c(CN4CCOCC4)c(O)c(CC=C(C)C)c(O)c3c(=O)c2c1CC=C(C)C`, for which the inhibition at 10 µM came to 33.6%.

In the case of `COc1c(O)cc2oc3c(CN4CCCC4)c(O)c(CC=C(C)C)c(O)c3c(=O)c2c1CC=C(C)C`, the inhibition at 10 µM turned out to be 68.2%.

In the case of `COc1c(O)c(CN2CCOCC2)c2oc3c(CN4CCOCC4)c(O)c(CC=C(C)C)c(O)c3c(=O)c2c1CC=C(C)C`, the inhibition at 10 µM was 57.4%.

As for `CC(C)=CCc1c(O)c(CN(C)C)c2oc3c(CN(C)C)c(O)c(O)c(CC=C(C)C)c3c(=O)c2c1O`, the inhibition at 10 µM is 75.7%.

The next series concerns Erythrocyte. The experiment in a line: Protection against H2O2-induced oxidative stress in mouse RBC assessed as inhibition of hemolysis at 0.05 uM pretreated for 30 mins followed by H2O2 addition and measured after 5 hrs by malondialdehyde indicator based assay relative to control.
Conditions: not given
It is filed as functional.
Regarding `CC(C)=CCc1c(O)c(CN2CCCCCC2)c2oc3c(CN4CCCCCC4)c(O)c(O)c(CC=C(C)C)c3c(=O)c2c1O`, the inhibition at 0.05 µM was determined as 74.3%.

Take `CC(C)=CCc1c(O)c(CN(C)C)c2oc3c(CN(C)C)c(O)c(O)c(CC=C(C)C)c3c(=O)c2c1O`: the inhibition at 0.05 µM amounted to 78%.

System in another series: not listed separately
Briefly: Hemolytic activity against mouse RBC assessed as hemolysis measured after 5 hrs by malondialdehyde indicator based assay relative to control. It is filed as ADME, cell-based, Erythrocyte. As to conditions: mouse red blood cells (erythrocytes), read-out: Activity.
On to `COc1c(O)cc2oc3c(CN(C)C)c(O)c(CC=C(C)C)c(O)c3c(=O)c2c1CC=C(C)C`, for which the hemolysis at 5 h was found to be 63.1%.

Another series has as its system Erythrocyte. Briefly: Antioxidant activity against H2O2-induced oxidative stress in mouse RBC assessed as inhibition of LPO accumulation at 0.05 uM pretreated for 30 mins followed by H2O2 addition and measured after 4 hrs by TBARS assay relative to control. It is filed as functional.
Conditions: not given
On to `CC(C)=CCc1c(O)c(CN2CCCCCC2)c2oc3c(CN4CCCCCC4)c(O)c(O)c(CC=C(C)C)c3c(=O)c2c1O`, for which the inhibition at 0.05 µM worked out at 69%.

`CC(C)=CCc1c(O)c(CN(C)C)c2oc3c(CN(C)C)c(O)c(O)c(CC=C(C)C)c3c(=O)c2c1O`: the inhibition at 0.05 µM was determined as 67.7%.

System in another series: not listed separately
The experiment in a line: Antioxidant activity assessed as DPPH radical scavenging activity at 10 to 100 uM incubated in dark for 30 mins. It is filed as functional.
Conditions: not given
(In general: The DPPH test is a chemical assay of radical scavenging.)
In the case of `CC(C)=CCc1c(O)c(CN2CCCCCC2)c2oc3c(CN4CCCCCC4)c(O)c(O)c(CC=C(C)C)c3c(=O)c2c1O`, the outcome was Active.

As to `COc1c(O)c(CN2CCCCCC2)c2oc3c(CN4CCOCC4)c(O)c(CC=C(C)C)c(O)c3c(=O)c2c1CC=C(C)C`, the result was Active.

As for `COc1c(O)cc2oc3c(CN4CCCC4)c(O)c(CC=C(C)C)c(O)c3c(=O)c2c1CC=C(C)C`, the outcome was Active.

Consider `COc1c(O)c(CN2CCOCC2)c2oc3c(CN4CCOCC4)c(O)c(CC=C(C)C)c(O)c3c(=O)c2c1CC=C(C)C`, for which the outcome was Active.

For `CC(C)=CCc1c(O)c(CN(C)C)c2oc3c(CN(C)C)c(O)c(O)c(CC=C(C)C)c3c(=O)c2c1O`, the result was Active.

A further series concerns Erythrocyte. Briefly: Antioxidant activity against H2O2-induced oxidative stress in mouse RBC assessed as inhibition of LPO accumulation at 1 uM pretreated for 30 mins followed by H2O2 addition and measured after 4 hrs by TBARS assay relative to control.
Conditions: not given
It is filed as functional.
Regarding `COc1c(O)c(CN2CCCCCC2)c2oc3c(CN4CCOCC4)c(O)c(CC=C(C)C)c(O)c3c(=O)c2c1CC=C(C)C`, the inhibition at 1 µM was determined as 56.1%.

Turning to `COc1c(O)cc2oc3c(CN4CCCC4)c(O)c(CC=C(C)C)c(O)c3c(=O)c2c1CC=C(C)C`, the inhibition at 1 µM is 56.4%.

On to `COc1c(O)c(CN2CCOCC2)c2oc3c(CN4CCOCC4)c(O)c(CC=C(C)C)c(O)c3c(=O)c2c1CC=C(C)C`, for which the inhibition at 1 µM is 76.1%.

Another series relates to Erythrocyte. The experiment in a line: Protection against H2O2-induced oxidative stress in mouse RBC assessed as inhibition of hemolysis at 10 uM pretreated for 30 mins followed by H2O2 addition and measured after 5 hrs by malondialdehyde indicator based assay relative to control. It is filed as functional.
Conditions: not given
With `COc1c(O)c(CN2CCCCCC2)c2oc3c(CN4CCOCC4)c(O)c(CC=C(C)C)c(O)c3c(=O)c2c1CC=C(C)C`, the inhibition at 10 µM was 17.7%.

As to `COc1c(O)cc2oc3c(CN4CCCC4)c(O)c(CC=C(C)C)c(O)c3c(=O)c2c1CC=C(C)C`, the inhibition at 10 µM stood at 17.5%.

In the case of `COc1c(O)c(CN2CCOCC2)c2oc3c(CN4CCOCC4)c(O)c(CC=C(C)C)c(O)c3c(=O)c2c1CC=C(C)C`, the inhibition at 10 µM is 22%.

System in the next series: not listed separately
The experiment in a line: Metal chelating activity assessed as compound-Fe2+ complex formation at 10 uM after 10 mins by FerrozineTM iron reagent based assay.
Conditions: not given
Regarding `CC(C)=CCc1c(O)c(CN2CCCCCC2)c2oc3c(CN4CCCCCC4)c(O)c(O)c(CC=C(C)C)c3c(=O)c2c1O`, the outcome was Active.

For `COc1c(O)cc2oc3c(CN4CCCC4)c(O)c(CC=C(C)C)c(O)c3c(=O)c2c1CC=C(C)C`, the result was Active.

Regarding `CC(C)=CCc1c(O)c(CN(C)C)c2oc3c(CN(C)C)c(O)c(O)c(CC=C(C)C)c3c(=O)c2c1O`, the result was Active.

System in a further series: not listed separately
The experiment in a line: Antioxidant activity assessed as DPPH radical scavenging activity at 100 uM incubated in dark for 30 mins relative to control. It is filed as functional.
Conditions: not given
Take `COc1c(O)cc2oc3c(CN(C)C)c(O)c(CC=C(C)C)c(O)c3c(=O)c2c1CC=C(C)C`: the Activity is 13.1 to 16%.

As for `COc1c(O)cc2oc3c(CN4CCOCC4)c(O)c(CC=C(C)C)c(O)c3c(=O)c2c1CC=C(C)C`, the Activity fell in the range of 13.1 to 16%.

Regarding `COc1c(O)cc2oc3c(CN4CCCCC4)c(O)c(CC=C(C)C)c(O)c3c(=O)c2c1CC=C(C)C`, the Activity lay within 13.1 to 16%.

For the origin of these results see ChEMBL document CHEMBL4152226, “Novel Mannich bases of α- and γ-mangostins: Synthesis and evaluation of antioxidant and membrane-protective activity” (Eur J Med Chem, 2018).
